This series can be described thus: Drug release from loaded sponges at 37° C. in deionized water. It is filed as physicochemical. As to conditions: comparison among model drugs MB, ORO, TH. From the text: To maintain constant therapeutic levels for prolonged periods and to reduce the total dose of administration, the ability of a carrier to prolong drug release is required.

SMILES strings stand for the structures.

Consider `CN(C)[C@@H]1C(=O)C(C(N)=O)=C(O)[C@@]2(O)C(=O)C3=C(O)c4c(O)cccc4[C@@](C)(O)[C@H]3C[C@@H]12.Cl` [TH], for which the drug release sustainability result was “more sustainable as compared to that of ORO”.
